Several values for one entry are separate records, joined by “and”; a condition that tells them apart may be missing. Equal values may be shown once.
Columns and labels:
[1] = system: LCE; test: LCE assay: cleavage of [14C]-AZT-DMDOPE/AZT-DMDOPE to DMDOP by fractions of human blood cells; type: biochemical; details: for Spezifische Aktivität: n = 4; for spezifische LCE-Aktivität / AZT-DMDOPE-spaltende Aktivität (spezifische Aktivität des LCE): n = 6; for Km / vmax: membrane fraction 0.068 mg/Ansatz
Method: Das Pipettierschema ist in der folgenden Tabelle angegeben. Tabelle
Zur Untersuchung der enzymatischen Spaltung in Abhängigkeit von der Substratkonzentration wurde eine Substratstammlösung von 0.98 nmol [^14C]-AZT-DMDOPE und 0.7 nmol AZT-DMDOPE/80 µl Aqua bidest. im LCE-Assay angesetzt. Die verschiedenen Substratkonzentrationen im LCE-Assay wurden durch kontinuierliche Verdopplung bzw. Halbierung des Volumens an Substratlösung eingestellt. Die Ansätze wurden in Glasröhrchen (5 ml) vorgelegt und durch Zugabe der Substratlösung gestartet. Die Inkubation wurde bei 37 °C im Wasserbad unter leichtem Schütteln durchgeführt.
Die Reaktionsansätze des LCE-Assays wurden nach entsprechender Inkubationszeit dem Wasserbad entnommen, und die Reaktion durch Zugabe von 750 µl 2-Propanol gestoppt. Nach gründlicher Durchmischung wurden die Ansätze anschließend mit 700 µl auf Raumtemperatur erwärmtem n-Heptan versetzt. Die Ansätze wurden erneut für 30 sec gut gemischt und zur Beschleunigung der Phasentrennung in der Minifuge T bei 3200 rpm für 15 min bei Raumtemperatur zentrifugiert. Anschließend wurden 500 µl der oberen Phase (n-Heptan) entnommen und in neue Glasröhrchen (5 ml) mit 10 mg Kieselgel 60 H und 200 µl n-Heptan überführt. Die Ansätze wurden für 30 sec gut durchmischt und zur Sedimentation des Kieselgels für 10 min unter oben genannten Bedingungen zentrifugiert. Vom Überstand wurden anschließend 500 µl entnommen und mit 3 ml Szintillationsflüssigkeit versetzt. Die Messung der Radioaktivität erfolgte für 4 min im Flüssigkeits-Szintillations-Analysator. Zur Bestimmung des Absolutwertes an Radioaktivität wurden 200 µl der Substratlösung mit 3 ml Szintillationsflüssigkeit versetzt und unter gleichen Bedingungen im Flüssigkeits-Szintillations-Analysator gemessen.
Für diese Untersuchungen ist ein Enzym-Assay etabliert, in dem AZT-DMDOPE und [^14C]-AZT-DMDOPE als Substrat eingesetzt wurde (Beispiel 6). […] Bei substratabhängigen Umsetzungen wurde eine Stammlösung von 0.98 nmol [^14C]-AZT-DMDOPE und 0.7 nmol AZT-DMDOPE /80 µl eingesetzt. Die verschiedenen Substratkonzentrationen wurden anschließend durch kontinuierliche Verdopplung bzw. Halbierung des Volumens an Substratlösung eingestellt.
Die Quantifizierung der enzymatischen Spaltung von AZT-DMDOPE wurde durch eine zweistufge Extraktion des Metaboliten DMDOP mit n-Heptan und anschließender Adsorption von Resten des Substrates AZT-DMDOPE an Kieselgel 60 H durchgeführt. Hierbei wurden die Reaktionsansätze mit 2-Propanol und n-Heptan versetzt. wobei sich das im Vergleich zum Substrat unpolare DMDOP in der n-Heptan-Phase anreichert. Die n-Heptan-Phase wurde dann mit Kieselgel 60 H versetzt, wobei Reste des Substrates AZT-DMDOPE adsorbiert werden. Die n-Heptan-Phase wurde anschließend durch Zentrifugation vom Kieselgel separiert, in 3 ml Aqua luma überführt und die in ihr enthaltene Menge an radioaktiv markiertem DMDOP im Flüssigkeits-Szintillations-Analysator über einen Zeitraum von 5 min bestimmt. Aus diesen Ergebnissen konnte die prozentuale Umsetzung des Substrates AZT-DMDOPE zu DMDOP und die spezifische Aktivität des LCE errechnet werden. Als spezifische Aktivität wurde hierbei die Menge an DMDOP bezeichnet die pro 1 mg Protein der eingesetzten Zellpräparationen pro Minute gebildet wurde.
Nach Bestimmung der Proteinkonzentration in Zellhomogenaten, Zytosol- und Membranfraktionen mit Hilfe des Bicinchoninsäure(BCS)-Tests wurden 0.025 - 0.20 mg Protein/Ansatz eingesetzt.
Zur Isolierung der Plasmamembranen wurden 2 ml einer Zellsuspension stimulierter humaner PBL mit einer Zelldichte von 2.5 x 10^8 Zellen/ml durch dreimaliges Einfrieren und Auftauen aufgeschlossen und durch Zentrifugation im Percoll-Dichtegradienten fraktioniert.

[2] = system: CEM-SS-Zellen; test: Enzymatic cleavage of [14C]-AZT-DMDOPE by cell homogenates, TLC of metabolites; type: in vitro ADME; details: Zellhomogenate von CEM-SS-Zellen
Method: Die Spaltung von AZT-DMDOPE wurde mit Hilfe eines Enzym-Assays mit [^14C]-AZT-DMDOPE und AZT-DMDOPE als Substrat untersucht. Als Enzymquelle wurden zunächst Zellhomogenate von CEM-SS-Zellen und humanen PBL verwendet. Tab.
Zur Herstellung der Zellhomogenate wurden Zellsuspensionen mit einer Dichte von 5 x10^7 Zellen/ml 50 mM Tris (pH 7.4) im Glashomogenisator mechanisch aufgeschlossen. Der Zellaufschluß wurde hierbei im Umkehr-Phasenkontrast-Mikroskop optisch kontrolliert. Tab.
Zunächst wurde 1 ml dieses Zellhomogenales in dem Enzym-Assay ohne vorherige Bestimmung der Proteinkonzentration eingesetzt.
Zur Gewährleistung einer Substratsättigung wurden weitere 50 nmol der nichtradioaktiv markierten Verbindung hinzugefügt. [^14C]-AZT-DMDOPE trägt die radioaktive Markierung im Thioetherlipidteil und erlaubt somit eine eindeutige Identifikation der potentiellen Metabolits [^14-C]DMDOP.
Die Ansätze wurden für 1, 3, 6 und 24 h im Wasserbad bei 37 °C inkubiert. Als Vergleich wurde ein Ansatz ohne Zugabe von Zellhomogenat mitgeführt. Anschließend wurden die Spaltprodukte mit Diethylether:2-Propanol (9:1, v/v) extrahiert und dünnschichtchromatographisch im IBA- und IBAE-System analysiert (Abb. 18). Nach Trennung der Substanzen wurde zur Detektion der radioaktiv markierten Substanzen die DC-Platte 15 min im Radio-DC-Analysator gemessen. […]

[3] = system: nichtstimulierten humanen PBL; test: Intracellular concentrations of AZT and AZT nucleotides (radioimmunoassay) in non-stimulated human PBL; type: in vitro ADME
Description: AZT wurden humane PBL aus "Buffy coat" isoliert.

[4] = system: stimulierten humanen PBL; test: Intracellular decay kinetics of AZT and AZT nucleotides after removal of the incubation solution; type: in vitro ADME, human
Method: Stimulierte humane PBL wurden für 24 h mit 0.3 µg AZT/ml bzw. 10 µg AZT-DMDOPE/ml inkubiert. Anschließend wurden 1 x 10^7 Zellen in Gewebekulturflaschen (50 ml/25 cm^2) mit RPMI 1640 Komplettmedium I überführt. Nach 1, 3, 6, 24 und 48 h wurde AZT und die AZT-Nukleotide aus der zellulären Matrix extrahiert. Nach einer Behandlung mit alkalischer Phosphatase wurde mit Hilfe des Radioimmuno-Assays die Konzentration an AZT bestimmt.

[5] = humane Monozyten/Makrophagen (stimulierte Monozyten), 37 °C, 2 h
[6] = nichtstimulierte humane PBL, 37 °C, 2 h
[7] = stimulierte humane PBL, 37 °C, 2 h

For CCCCCCCCCCCCSCC(COP(=O)(O)OC[C@H]1O[C@@H](n2cc(C)c(=O)[nH]c2=O)C[C@@H]1N=[N+]=[N-])OCCCCCCCCCC (stereo partly shown) [AZT-DMDOPE, (3'-Desoxy-3'-azidothymidin)-5'-phosphorsäure-(3-dodecyl-mercapto-2-decyloxy)-propylester], the “höchste spezifische LCE-Aktivität” value ([1]; Fraktion 8 (plasma membrane enriched) of Percoll gradient, stimulierte humane PBL, 0.05 mg protein/Ansatz, 37 °C, 2 h) was 4.40 pmol mg^-1 min^-1 min, the “Spezifische Aktivität” value ([1]; Membranfraktion humaner Monozyten isolated in hypertonic density gradient, linear range) was 3.2 + 0.60 pmol mg^-1 min^-1 and the “Spezifische Aktivität” value ([1]; Membranfraktion humaner Monozyten/Makrophagen (stimulated by adherence)) was 8.8 ± 0.26 pmol/mg/min. For the same compound, the “spezifische LCE-Aktivität” value ([1]; Membranfraktion nichtstimulierter humaner PBL, calculated from linear range) was 1.45 ± 0.32 pmol/mg/min, the “spezifische LCE-Aktivität” value ([1]; Membranfraktionen stimulierter humaner PBL, 2 h 37 °C) was 14.23 ± 0.70 pmol/mg/min and 14.23 ± 0.7 pmol/mg/min and the “AZT-DMDOPE-spaltende Aktivität (spezifische Aktivität des LCE)” value ([1]; Zellhomogenate stimulierter humaner PBL, 2 h 37 °C) was 6.48 ± 0.38 pmol/mg/min. For the same compound, the “AZT-DMDOPE-spaltende Aktivität (spezifische Aktivität des LCE)” value ([1]; Zytosolfraktionen stimulierter humaner PBL, 2 h 37 °C) was 1.65 ± 0.40 pmol/mg/min, the “spezifische Aktivitäten” value ([1]; all further fractions of Percoll gradient, stimulierte humane PBL, 0.05 mg protein/Ansatz, 37 °C, 2 h) was 1.10 to 1.90 pmol/mg/min and the Km ([1]; humane Monozyten, 37 °C, 2 h) was 12.1 ± 4.13 µM. For the same compound, the vmax ([1]; humane Monozyten, 37 °C, 2 h) was 1.61 ± 0.37 pmol/mg/min, the Km [1, 5] was 4.63 ± 0.45 µM and the vmax [1, 5] was 9.09 ± 0.44 pmol/mg/min. The Km [1, 6] was 5.51 ± 0.99 µM, the vmax [1, 6] was 2.03 ± 0.19 pmol/mg/min and the Km [1, 7] was 2.26 ± 0.16 µM. For the same compound, the vmax [1, 7] was 15.29 ± 0.37 pmol/mg/min, the “Metabolisierung von AZT-DMDOPE” value [2] was “zu DMDOP und AZT-MP metabolisiert” and the “maximale intrazelluläre Konzentrationen an AZT und AZT-Nukleotiden” value ([3]; 1 µg AZT-DMDOPE/ml) was 0.62 ng/10^6 Zellen. The “maximale intrazelluläre Konzentrationen an AZT und AZT-Nukleotiden” value ([3]; 10 µg AZT-DMDOPE/ml) was 4.74 ng/10^6 Zellen, the “intrazelluläre Konzentrationen an AZT und AZT-Nukleotiden im Vergleich zur äquipotenten Konzentration an AZT” value ([3]; whole incubation time) was “größer” and the “um Faktor höhere Konzentration an phosphoryliertem AZT im Vergleich zu äquipotenter Konzentration an AZT” value ([4]; 10 µg AZT-DMDOPE/ml vs. 0.3 µg AZT/ml) was 4.5. For the same compound, the “konstanter Wert der intrazellulären Konzentrationen an AZT und AZT-Nukleotiden” value ([4]; 24 h preincubation with 10 µg AZT-DMDOPE/ml, reached after 3 h, constant over 48 h) was 1.80 ng/10^6 Zellen.
